GI50 and TGI data for 15 compounds are collected here from PubChem BioAssay (NCI).

Values joined by “and” are separate entries in the source; they are usually repeats but may differ in a detail not shown here. Equal entries are not always repeated.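 Dose response: 5 concentrations. Exposure: 48 h. Format: 96-well plates. Endpoint: linear interpolation; highest concentration if not reached. Abbreviation: GI50, concentration required for 50% inhibition of growth. Definition used: TGI = concentration required for complete inhibition of growth.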

Test systems include U251 CNS; MOLT-4 leukemia; NCI/ADR-RES ovarian; OVCAR-4 ovarian; SN12C renal; OVCAR-3 ovarian; ACHN renal; HS 578T breast; CAKI-1 renal; DU-145 prostate.
Assay in all cases: NCI-60 cell line screen, 48 h

On to `COc1cc(-c2cc(-c3ccc(Nc4ccnc5cc(Cl)ccc45)cc3)nc(N3CCOCC3)n2)cc(OC)c1OC`, for which the GI50 with U251 CNS is 1.62 µM; in the assay with MOLT-4 leukemia, 2.58 µM; in the assay on NCI/ADR-RES ovarian, 2.3 µM; in the assay with OVCAR-4 ovarian, 1.89 µM; in the assay on SN12C renal, 1.93 µM; with OVCAR-3 ovarian it was 1.89 µM. The GI50 in the assay with ACHN renal is 2.34 µM; in the assay with HS 578T breast, 2.25 µM. The TGI in the assay on U251 CNS worked out at 3.12 µM; in the assay on MOLT-4 leukemia it was 9.2 µM; with NCI/ADR-RES ovarian, 7.26 µM; in the assay on OVCAR-4 ovarian it was 4.3 µM; with SN12C renal, 3.81 µM; in the assay with OVCAR-3 ovarian, 3.67 µM. In addition, the TGI in the assay with ACHN renal is 5.02 µM; in the assay on HS 578T breast it was 5.35 µM.
In the case of `Cn1c(=O)c(NC(=O)C(Cl)(Cl)Cl)nc2ccccc21`, the TGI in the assay with U251 CNS, in the assay on MOLT-4 leukemia, in the assay with SN12C renal, with OVCAR-3 ovarian and with CAKI-1 renal was above 100 µM throughout.
Regarding `COC(=O)C1=C(c2ccc(OC)c(OC)c2)OC(c2cc(OC)c(OC)c(OC)c2)C1` (stereo not drawn), the TGI in the assay on U251 CNS, in the assay with OVCAR-4 ovarian, with SN12C renal, in the assay on OVCAR-3 ovarian, with ACHN renal and in the assay with CAKI-1 renal was above 100 µM each time.
`O=C(CCC(=O)Nc1ccc(Cl)c(Cl)c1)CC(=O)c1ccc(F)cc1`: the TGI in the assay on U251 CNS, with MOLT-4 leukemia, in the assay with OVCAR-4 ovarian, in the assay with SN12C renal, in the assay on OVCAR-3 ovarian and in the assay on ACHN renal was above 100 µM throughout. For the same compound, the TGI in the assay with CAKI-1 renal is above 100 µM.
On to `CN(C)c1nnnn1-c1c(N)n(C)c(=O)n(C)c1=O`, for which the TGI in the assay with U251 CNS, in the assay with MOLT-4 leukemia, with OVCAR-4 ovarian, with SN12C renal, in the assay with OVCAR-3 ovarian and in the assay with ACHN renal was above 100 µM throughout. In the assay on CAKI-1 renal, the TGI was above 100 µM.
As for `CC1=CC(=O)C(C(C)C)=CC1=Nc1cc(Br)c(O)c(Br)c1`, the GI50 with U251 CNS is 4.72 µM; in the assay on MOLT-4 leukemia it was 4.53 µM; in the assay on OVCAR-4 ovarian, 6.29 µM; in the assay on SN12C renal, 5.56 µM; with OVCAR-3 ovarian, 2.68 µM; with DU-145 prostate, 3.58 µM. In addition, the results for the GI50 with ACHN renal, in the assay on HS 578T breast and in the assay with CAKI-1 renal were 11.6 µM, 2.76 µM and 2.46 µM, respectively. Moreover, the TGI in the assay on U251 CNS was 19.1 µM; with MOLT-4 leukemia, 23.4 µM; with OVCAR-4 ovarian, 19.5 µM; with SN12C renal, 18.3 µM; in the assay with OVCAR-3 ovarian, 7.47 µM; with DU-145 prostate, 11.7 µM. For the same compound, the TGI with ACHN renal is 30.1 µM; in the assay with HS 578T breast, 21.1 µM; with CAKI-1 renal, 8.02 µM.
For the compound `CCCCCCCCCCCCCCCCNCCCN(C)CCCN`, the TGI in the assay on U251 CNS amounted to 31.8 µM; in the assay with MOLT-4 leukemia, 94.1 µM; in the assay with OVCAR-4 ovarian, 32.9 µM; in the assay on SN12C renal, 41 µM; with OVCAR-3 ovarian, 35.9 µM; in the assay with ACHN renal, 34.9 µM. In addition, the TGI with CAKI-1 renal amounted to 35.8 µM.
Take `COc1cc(NS(C)(=O)=O)ccc1Nc1c2ccccc2nc2ccccc12`: the GI50 was 0.528 µM and 0.35 µM and 0.358 µM in the assay on U251 CNS; 0.181 µM and 0.0453 µM and < 0.025 µM in the assay with MOLT-4 leukemia; 12.6 µM and 5.08 µM in the assay on OVCAR-4 ovarian; 0.432 µM and 0.273 µM and 0.307 µM with SN12C renal; 4 µM in the assay on OVCAR-3 ovarian; 0.311 µM and 0.194 µM and 0.183 µM in the assay with ACHN renal. Moreover, the GI50 with CAKI-1 renal is 0.55 µM and 0.213 µM and 0.308 µM. Besides, the TGI is 7.66 µM [middle of 8 runs] in the assay on OVCAR-3 ovarian and 2.59 µM [middle of 5 runs] in the assay with DU-145 prostate.
Take `CCOc1ccc2c(c1)[n+]([O-])c(-c1ccc(Br)cc1)c(N)[n+]2[O-]`: the TGI in the assay with U251 CNS, in the assay on MOLT-4 leukemia, with OVCAR-4 ovarian, in the assay on SN12C renal, with OVCAR-3 ovarian and with ACHN renal was above 100 µM in each case. The TGI with CAKI-1 renal is 64.1 µM.
Take `CN(C)c1ccc(/C=C/c2ccc(/C=C/c3ccc(N(C)C)cc3)cc2)cc1`: the TGI with U251 CNS, in the assay on MOLT-4 leukemia, in the assay on OVCAR-4 ovarian, in the assay on SN12C renal, with OVCAR-3 ovarian and in the assay on ACHN renal was above 100 µM throughout. Also, the TGI in the assay on CAKI-1 renal is above 100 µM.
`C[N+](C)(C)CC1CCC/C1=N/O` (stereo not drawn): the TGI in the assay on U251 CNS, in the assay with MOLT-4 leukemia, in the assay with OVCAR-4 ovarian, in the assay with SN12C renal, with OVCAR-3 ovarian and with ACHN renal was above 100 µM each time.
With `Cc1nnc2c3nnc(C)n3c3ccccc3n12`, the TGI in the assay on U251 CNS, in the assay on MOLT-4 leukemia, in the assay with OVCAR-4 ovarian, in the assay with SN12C renal, with OVCAR-3 ovarian and in the assay with ACHN renal was above 100 µM throughout. In the assay with CAKI-1 renal, this compound came in with a TGI above 100 µM.
`N#CC1CCCCOCCOCCOCCOCCOCCCCCC1=O` (stereo not drawn): the TGI with U251 CNS, in the assay with MOLT-4 leukemia, in the assay with OVCAR-4 ovarian, with SN12C renal, in the assay on OVCAR-3 ovarian and in the assay with ACHN renal was above 100 µM each time. In the assay with CAKI-1 renal, this compound registered a TGI above 100 µM.
On to `O=C(/C=C/c1ccco1)c1ccc(NCc2nc3ccccc3[nH]2)cc1`, for which the TGI turned out to be 23.8 µM with U251 CNS; 31.9 µM in the assay on MOLT-4 leukemia; 56.6 µM in the assay with OVCAR-4 ovarian; 32 µM in the assay on SN12C renal; 31.1 µM in the assay on OVCAR-3 ovarian; 38.4 µM in the assay with ACHN renal. Further, the TGI with CAKI-1 renal worked out at 49.9 µM.
Turning to `S=c1nc(COc2ccc(Cl)cc2Cl)[nH][nH]1`, the TGI in the assay with U251 CNS, in the assay with MOLT-4 leukemia, with OVCAR-4 ovarian, with SN12C renal, with OVCAR-3 ovarian and in the assay with ACHN renal was above 100 µM in each case. Also, the TGI in the assay on CAKI-1 renal was above 100 µM.
